In patent US20070255357A1, “NASAL DECO[…] MICROBES” (Ondine International, Ltd., priority 2006, published 2007):

Tests used:
biofilms of MRSA = test: Photodisinfection of MRSA biofilms in vitro (methylene blue + Periowave laser); type: cell-based, Methicillin-resistant Staphylococcus aureus; conditions: biofilm; for reduction of MRSA: at least 0.02 wt % methylene blue, laser about 665-675 nm for at least 15 seconds (at least 2.25 J/cm^2)
Text: (§1) Photodisinfection treatments using methods contemplated by the present invention have been tested against MRSA, Escherichia coli (E. coli), and Enterococcus fecalis (E. fecalis) in vitro and reached high levels of disinfection in within seconds to one minute. Photosensitizing composition comprising of methylene blue at various concentrations ranging from about 0.005 wt % to 0.1 wt % was applied to biofilms of MRSA, E. coli and E. fecalis for about ten seconds. These biofilms were then illuminated by a laser light system at a wavelength of about 665 nm to about 675 nm for a period from about 0 seconds to about 60 seconds (e.g., accumulated energy level of about 0 J/cm^2 to about 9 J/cm^2). The laser light system used was the Periowave™ system which includes a low-intensity laser with power at about 240 mW and the optical probe described in PCT Patent Publication No. WO2006115761.

biofilms of E. coli = test: Photodisinfection of E. coli biofilms in vitro (methylene blue + Periowave laser); type: cell-based, Escherichia coli; conditions: biofilm; for reduction of E. coli: at least 0.02 wt % methylene blue, laser about 665-675 nm for at least 15 seconds (at least 2.25 J/cm^2)
Text: as §1

biofilms of E. fecalis = test: Photodisinfection of E. fecalis biofilms in vitro (methylene blue + Periowave laser); type: cell-based, Enterococcus fecalis; conditions: biofilm
Text: as §1

MRSA biofilms = test: SEM evaluation of MRSA biofilms after photodisinfection; type: cell-based, Methicillin-resistant Staphylococcus aureus; conditions: about 0.1 wt % methylene blue, about 10 s contact; about 665-675 nm for about 30 seconds, Periowave laser; FIG. 34 vs FIG. 33
Procedure: (§2) Biofilms heavily colonized with one to four layers of MRSA organisms were contacted with a photosensitizing composition comprising methylene blue at a concentration of about 0.1 wt % for about 10 seconds and then illuminated at a wavelength of about 665 nm to about 675 nm for a period from about 30 seconds using the Periowave™ laser. Thereafter, these biofilms and the controlled MRSA biofilms (e.g., no photodisinfection treatment) were incubated overnight in 0.9 wt % saline and then fixed in 10 wt % Formalin for scanning electron microscope (SEM) evaluation.

E. coli biofilms = test: SEM evaluation of E. coli biofilms after photodisinfection; type: cell-based, Escherichia coli; conditions: about 0.1 wt % methylene blue, about 10 s contact; about 665-675 nm for about 30 seconds, Periowave laser; FIG. 36 vs FIG. 35
Procedure: as §2, with “to three” for “to four”, “of Escherichia coli (E. coli)” for “of MRSA”, “controlled E. coli” for “controlled MRSA”, “incubated for three hours” for “incubated overnight”, “in 0.9%” for “in 0.9 wt %”, “in 10%” for “in 10 wt %”

otitis externa [1] = test: Study on patients suffering otitis externa (photodisinfection); type: in vivo, human
Procedure: A study was conducted on patients suffering otitis externa. During the study, a photosensitizing composition comprising of methylene blue at a concentration of about 0.01 wt % was applied using a cotton swab to the treatment site as shown in FIG. 37. Thereafter and referring to FIGS. 38-39, light at a wavelength range from about 665 nm to about 675 nm was applied to the photosensitizing composition located within the treatment site 64 for a period from about 3 minutes to about 5 minutes (3-5 repetitive one minute cycles) using the Periowave™ laser light system.

otitis externa [2] = test: Photodisinfection of otitis externa treatment site (Examples V to VII); type: in vivo
Procedure: A photosensitizing composition comprising of methylene blue at a concentration of about 0.1 wt % is applied to the otitis externa treatment site. Light at a wavelength range from about 650 nm to about 680 nm is applied to the photosensitizing composition located within the otitis externa treatment site for a period from about 6 minutes to about 10 minutes using a laser with power at about 80 mW. The otitis externa was ameliorated.
A photosensitizing composition comprising of methylene blue at a concentration range of from about 0.001 wt % to about 0.1 wt % is applied to the otitis externa treatment site. Light at a wavelength range from about 650 nm to about 680 nm is applied to the photosensitizing composition located within the treatment site for a period from about 1 minute to about 20 minutes using a laser with power at a range from about 50 mW to about 300 mW. The otitis externa was ameliorated.
A photosensitizing composition comprising of toluidine blue at a concentration range of from about 0.001% wt % to about 0.1 wt % is applied to the otitis externa treatment site. Light at a wavelength range from about 620 nm to about 650 nm is applied to the photosensitizing composition located within the otitis externa treatment site for a period from about 1 minute to about 20 minutes using a laser with power at a range from about 50 mW to about 300 mW. The otitis externa was ameliorated.
For Examples V to VII, it was shown that there is a general inverse relationship between (1) the photosensitizer concentration and (2) the photodisinfection treatment time and/or the amount of power required for the light source. For example, higher concentration of photosensitizer requires less treatment time and/or lower light source power. Conversely, lower concentration of photosensitizer requires longer treatment time and/or higher light source power. Also, less treatment time requires higher concentration of photosensitizer and/or higher light source power.

[3] = methylene blue about 0.02-0.1 wt % and a low power laser (about 240 mW)

Structure (SMILES) | reduction of MRSA (biofilms of MRSA; about 10 s contact) | reduction of MRSA (biofilms of MRSA) | elimination of MRSA by photodisinfection (biofilms of MRSA; [3]) | reduction of E. coli (biofilms of E. coli; about 10 s contact) | reduction of E. coli (biofilms of E. coli) | elimination of E. coli by photodisinfection (biofilms of E. coli; [3]) | reduction of E. fecalis (biofilms of E. fecalis; at least 0.02 wt % methylene blue, laser about 665-675 nm for at least 15 seconds (at least 2.25 J/cm^2)) | elimination of E. Fecalis by photodisinfection (biofilms of E. fecalis; [3]) | reduction of MRSA in SEM photograph vs controlled biofilm (MRSA biofilms) | reduction of E. coli in SEM photograph vs controlled biofilm (E. coli biofilms) | outcome of severe otitis externa (otitis externa [1]; patients with severe otitis externa, about 2 to 5 additional treatments, same protocol, over about one to two weeks) | outcome of otitis externa (otitis externa [1]; patients, about 0.01 wt % methylene blue by cotton swab, about 665-675 nm for about 3-5 minutes, Periowave laser, many patients) | outcome of otitis externa (otitis externa [2]; Example V: about 0.1 wt % methylene blue, about 650-680 nm for about 6-10 minutes, laser about 80 mW) | outcome of otitis externa (otitis externa [2]; Example VI: about 0.001-0.1 wt % methylene blue, about 650-680 nm for about 1-20 minutes, laser about 50-300 mW) | outcome of otitis externa (otitis externa [2]; Example VII: about 0.001-0.1 wt % toluidine blue, about 620-650 nm for about 1-20 minutes, laser about 50-300 mW)
CN(C)c1ccc2nc3ccc(=[N+](C)C)cc-3sc2c1 [methylene blue] | at least three | over 90% | effectively eliminated | at least three | over 90% | effectively eliminated | over 90% | effectively eliminated | substantial reduction of MRSA | substantial reduction of E. coli | also ameliorated | ameliorated | ameliorated | ameliorated | 
Cc1cc2nc3ccc(N(C)C)cc3[s+]c2cc1N.[Cl-] [toluidine blue] |  |  |  |  |  |  |  |  |  |  |  |  |  |  | ameliorated
